The source of these data is PubChem BioAssay (NCI).

Structures are written as SMILES. Values joined by “and” are separate entries in the source; they are usually repeats but may differ in a detail not shown here. Equal entries are not always repeated.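 Following 48 hours of exposure in 96-well plates, responses at five concentrations were used to interpolate endpoints linearly. GI50 = concentration required for 50% inhibition of growth. At the TGI there is no net growth.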

Among the test systems are CCRF-CEM leukemia; MOLT-4 leukemia; CAKI-1 renal; A549 NSCLC; EKVX NSCLC; MDA-MB-435; K-562 leukemia; PC-3 prostate; UO-31 renal; MCF7 breast.
Experiment in all cases: NCI tumour cell line growth inhibition, 48 h

With `COC(=O)c1cccc(C(=O)OC)c1`, the TGI in the experiment on CCRF-CEM leukemia, in the experiment with MOLT-4 leukemia, with CAKI-1 renal and with A549 NSCLC was above 100 µM throughout.
Turning to `O=C(Nc1cccc(-n2ccc3c(NC(=O)c4ccccc4)nccc32)c1)c1cc(N2CCOCC2)cc(C(F)(F)F)c1`, the GI50 is 0.802 µM with EKVX NSCLC; 0.0253 µM in the experiment on MDA-MB-435; 0.0506 µM in the experiment on K-562 leukemia; 0.152 µM with PC-3 prostate; 0.754 µM with UO-31 renal; 0.907 µM with MOLT-4 leukemia. Besides, the GI50 in the experiment on CAKI-1 renal was 0.0641 µM; in the experiment on A549 NSCLC it was 0.142 µM; in the experiment with MCF7 breast, 0.0332 µM. Also, the TGI in the experiment on EKVX NSCLC is above 100 µM; in the experiment on MDA-MB-435, 0.0688 µM; in the experiment with K-562 leukemia it was above 100 µM; with PC-3 prostate it was above 100 µM; with UO-31 renal, above 100 µM; in the experiment with MOLT-4 leukemia, above 100 µM. Besides, the TGI in the experiment on MCF7 breast is above 100 µM.
On to `COc1cc(C2S/C(=C/c3ccccc3)C(=O)N2c2cccc([N+](=O)[O-])c2)cc(OC)c1OC` (stereo not given), for which the TGI with EKVX NSCLC is above 100 µM; in the experiment with MDA-MB-435, 41.2 µM; with K-562 leukemia, above 100 µM; in the experiment on PC-3 prostate it was above 100 µM; in the experiment on UO-31 renal, above 100 µM; with MOLT-4 leukemia, above 100 µM. In addition, the TGI in the experiment on CAKI-1 renal, in the experiment with A549 NSCLC and in the experiment with MCF7 breast was above 100 µM in each case.
Turning to `CC1(C)[C@@H]2C[C@H]1C(Cc1cccc(C[C@H]3c4cc(-c5ccccn5)ncc4[C@H]4C[C@@H]3C4(C)C)c1)c1cc(-c3ccccn3)ncc12` (stereo not given in full), the TGI with EKVX NSCLC is above 46.8 µM; in the experiment with MDA-MB-435, above 58.5 µM; with K-562 leukemia, above 100 µM; in the experiment on PC-3 prostate it was above 47.2 µM; with UO-31 renal, 6.15 µM; in the experiment with MOLT-4 leukemia, 1.91 µM. Further, the TGI with CAKI-1 renal, in the experiment on A549 NSCLC and in the experiment with MCF7 breast was above 100 µM in each case.
For the compound `COc1nc2[nH]ccc2c(=O)n1C`, the TGI was above 100 µM in the experiment on CCRF-CEM leukemia; above 100 µM in the experiment on EKVX NSCLC; above 100 µM with K-562 leukemia; above 100 µM in the experiment on MOLT-4 leukemia; 57.6 µM in the experiment with CAKI-1 renal; above 100 µM with A549 NSCLC.
As to `CC(=O)Nc1ccc(-c2nnc(SCC(=O)Nc3ccccc3C)o2)cc1`, the TGI in the experiment on CCRF-CEM leukemia, in the experiment on K-562 leukemia, in the experiment with UO-31 renal, with MOLT-4 leukemia and in the experiment on A549 NSCLC was above 100 µM in each case.
`COC(=O)CCN(CCC(=O)OC)C1CC1`: the TGI in the experiment on CCRF-CEM leukemia, in the experiment on EKVX NSCLC, in the experiment on MDA-MB-435, with K-562 leukemia, in the experiment with UO-31 renal and with MOLT-4 leukemia was above 100 µM each time. In addition, the TGI with A549 NSCLC and with MCF7 breast was above 100 µM throughout.
Turning to `COc1cc(C(SCc2ccccc2)SCc2ccccc2)ccc1O`, the TGI in the experiment on CCRF-CEM leukemia, in the experiment with EKVX NSCLC, in the experiment on K-562 leukemia, with PC-3 prostate, in the experiment on UO-31 renal and in the experiment with MOLT-4 leukemia was above 10 µM in each case. Besides, the TGI with CAKI-1 renal and with MCF7 breast was above 10 µM in each case.
In the case of `CC(C)CCC/C(CBr)=C(\Cl)CCl`, the TGI stood at 30.3 µM in the experiment on EKVX NSCLC; 6.25 µM with MDA-MB-435; 13.2 µM with PC-3 prostate; 8.4 µM in the experiment with UO-31 renal; 2.88 µM in the experiment on MOLT-4 leukemia; 9.35 µM with CAKI-1 renal. The values for the TGI with A549 NSCLC and in the experiment with MCF7 breast were 31 µM and 12.9 µM, respectively.
On to `Cn1ccc(C(=O)NCCCCCNC(=O)c2ccn(C)c(=O)c2O)c(O)c1=O`, for which the TGI in the experiment with CCRF-CEM leukemia, in the experiment with MDA-MB-435, in the experiment with PC-3 prostate, with UO-31 renal, in the experiment with CAKI-1 renal and in the experiment with A549 NSCLC was above 100 µM in each case.
In the case of `O=C(O)c1ccc(Nc2nc3ccccc3nc2C(=O)O)cc1`, the TGI in the experiment with CCRF-CEM leukemia, in the experiment with EKVX NSCLC, in the experiment on MDA-MB-435, in the experiment with K-562 leukemia, with UO-31 renal and with MOLT-4 leukemia was above 100 µM each time. The TGI in the experiment with CAKI-1 renal, with A549 NSCLC and in the experiment on MCF7 breast was above 100 µM each time.
On to `CN(C)CC(NC(NCS)C(=O)NCCNc1ccc(NCCNC(=O)C(NCS)NC(CN(C)C)OCCl)c2c1C(=O)c1c(O)ccc(O)c1C2=O)OCCl` (stereo not given), for which the GI50 in the experiment with EKVX NSCLC is 0.516 µM. The TGI is 1.26 µM and 2.51 µM in the experiment with EKVX NSCLC; 1.45 µM with MDA-MB-435; 1.46 µM in the experiment with PC-3 prostate; 1.52 µM in the experiment on UO-31 renal; 0.119 µM in the experiment on CAKI-1 renal; 1.54 µM in the experiment with A549 NSCLC.
On to `CC(C)(NC1=NCCO1)c1ccccc1`, for which the TGI in the experiment with EKVX NSCLC, with MDA-MB-435, in the experiment with PC-3 prostate, with UO-31 renal, with MOLT-4 leukemia and with CAKI-1 renal was above 100 µM each time. Moreover, the TGI in the experiment on A549 NSCLC and in the experiment with MCF7 breast was above 100 µM in each case.
Regarding `CC(C)C1=CC23CCC4C(C)(C(=O)O)CCCC4(C)C2CC1C(C(=O)O)C3C(=O)O` (stereo not given), the TGI in the experiment with CCRF-CEM leukemia, with EKVX NSCLC, with MDA-MB-435, with K-562 leukemia, in the experiment on PC-3 prostate and with UO-31 renal was above 100 µM throughout. The TGI in the experiment with MOLT-4 leukemia, in the experiment on CAKI-1 renal and with A549 NSCLC was above 100 µM throughout.
Consider `c1ccc(Nc2nnc(-c3nsc4ccccc34)o2)cc1`, for which the TGI in the experiment on CCRF-CEM leukemia, in the experiment with EKVX NSCLC, in the experiment with K-562 leukemia, with UO-31 renal, in the experiment with MOLT-4 leukemia and in the experiment on A549 NSCLC was above 100 µM each time.
Regarding `CN1CC2CC(C1)c1cccc(=O)n1C2` (stereo not given), the TGI in the experiment with EKVX NSCLC, with MDA-MB-435, in the experiment on PC-3 prostate, in the experiment with UO-31 renal, with CAKI-1 renal and in the experiment with A549 NSCLC was above 100 µM throughout. The TGI in the experiment with MCF7 breast was above 100 µM.
